Laboratory results taken from article PMC8496750, “Identification of the organic anion transporting polypeptides responsible for the hepatic uptake of the major metabolite of epyrifenacil, S‐3100‐CA, in mice” (Pharmacology Research & Perspectives, 2021).

Tests used:
rat Oatp1b2 = molecular target: T1, rat Oatp1b2 (Rattus norvegicus, UniProt Q9QZX8); assay: Uptake assay for radiolabeled substrates, rat Oatp1b2 expressing 293FT cells; conditions: 10‐min incubation
T1 sequence (Q9QZX8 1-687): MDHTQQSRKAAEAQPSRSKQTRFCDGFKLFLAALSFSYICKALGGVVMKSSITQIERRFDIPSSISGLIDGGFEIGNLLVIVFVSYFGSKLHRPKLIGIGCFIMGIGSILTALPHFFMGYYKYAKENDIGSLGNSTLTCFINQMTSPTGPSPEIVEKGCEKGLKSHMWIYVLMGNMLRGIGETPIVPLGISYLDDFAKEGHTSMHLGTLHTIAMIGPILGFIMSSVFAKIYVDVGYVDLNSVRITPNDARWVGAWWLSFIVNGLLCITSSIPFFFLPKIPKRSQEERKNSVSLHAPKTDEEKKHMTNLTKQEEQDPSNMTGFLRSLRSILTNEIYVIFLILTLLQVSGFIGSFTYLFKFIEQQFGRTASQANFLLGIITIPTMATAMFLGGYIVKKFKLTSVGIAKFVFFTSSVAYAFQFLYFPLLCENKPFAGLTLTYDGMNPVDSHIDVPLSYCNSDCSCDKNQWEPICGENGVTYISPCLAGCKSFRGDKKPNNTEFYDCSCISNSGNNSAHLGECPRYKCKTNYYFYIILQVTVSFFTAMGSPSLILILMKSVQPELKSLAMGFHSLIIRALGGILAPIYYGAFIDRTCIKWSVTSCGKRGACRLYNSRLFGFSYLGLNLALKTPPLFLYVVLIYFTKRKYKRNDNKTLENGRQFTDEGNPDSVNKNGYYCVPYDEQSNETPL
Description: (§1) 293FT cells were purchased from Thermo Fisher Scientific, Inc.. The cells were grown in Dulbecco's modified Eagle medium (supplemented with 4.5 g/L glucose and 2 mM L‐glutamine) at 37°C, 5% CO2, and 95% humidity. The cells were passaged 3 times per week by harvesting cells using trypsin and plating at a density of 1.0 × 10^4 cells/cm^2 in a 10 cm cell culture plate for maintenance culture. The 293FT cells were detached using trypsin and re‐seeded at a density of 2.5 × 10^4 cells/cm^2 in BioCoat™ Collagen I 6‐well plates (Corning Inc.) for transfection and then treated with 1.2 μg of plasmid vector and 3.2 μl of Lipofectamine™ 2000 Transfection Reagent (Thermo Fisher Scientific, Inc.) according to the manufacturer's instructions. After a 3‐h treatment, the transfection medium was replaced with a fresh cell culture medium and incubated at 37°C with 95% humidity and 5% CO2 until ready for the assay.
(§2) Transport experiments were conducted approximately 24 h post‐transfection. The experiments were initiated by aspirating culture medium and addition of pre‐warmed radiolabeled substrate solution (final 1.0% of acetonitrile or 0.9% of ethanol in phosphate‐buffered saline (PBS[−])) to each well. After a 10‐min incubation, cells were washed twice with 1 ml of ice‐cold PBS(−) and lysed with 700 μl of 1.0 M NaOH for 3 h or more at room temperature. The lysate was transferred to a 1.5‐ml tube, and neutralized with 350 μl of 2.0 M HCl and 350 μl of 2.0% sodium dodecyl sulfate (SDS) solution. From the lysate, 1.0 ml was transferred to a vial containing 10 ml of Emulsifier Scintillator Plus to measure the radioactivity in the LSC. The protein concentration of the cell lysate was also measured using a Pierce™ BCA Protein Assay Kit (Thermo Fisher Scientific, Inc.), which was used to normalize, according to the cell number, the radioactivity in the cell lysate extract. The protein assay was performed in duplicate. Each sample type was assayed in triplicate wells, and each run was performed twice. When the difference in mean uptake between OATP expressing cells and mock cells was more than 2 times, the OATP was judged to be involved in transportation of the substrate. […] Each sample type was assayed in triplicate wells.

rat Oatp1a1 = molecular target: T2, rat Oatp1a1 (Rattus norvegicus, UniProt P46720); assay: Uptake assay for radiolabeled substrates, rat Oatp1a1 expressing 293FT cells; format: in vitro ADME; conditions: for Ratio of uptake amount relative to the uptake into mock cells: 10‐min incubation
T2 construct: expressed in transfected cells; host or cells: 293FT cells
T2 sequence (P46720 1-670): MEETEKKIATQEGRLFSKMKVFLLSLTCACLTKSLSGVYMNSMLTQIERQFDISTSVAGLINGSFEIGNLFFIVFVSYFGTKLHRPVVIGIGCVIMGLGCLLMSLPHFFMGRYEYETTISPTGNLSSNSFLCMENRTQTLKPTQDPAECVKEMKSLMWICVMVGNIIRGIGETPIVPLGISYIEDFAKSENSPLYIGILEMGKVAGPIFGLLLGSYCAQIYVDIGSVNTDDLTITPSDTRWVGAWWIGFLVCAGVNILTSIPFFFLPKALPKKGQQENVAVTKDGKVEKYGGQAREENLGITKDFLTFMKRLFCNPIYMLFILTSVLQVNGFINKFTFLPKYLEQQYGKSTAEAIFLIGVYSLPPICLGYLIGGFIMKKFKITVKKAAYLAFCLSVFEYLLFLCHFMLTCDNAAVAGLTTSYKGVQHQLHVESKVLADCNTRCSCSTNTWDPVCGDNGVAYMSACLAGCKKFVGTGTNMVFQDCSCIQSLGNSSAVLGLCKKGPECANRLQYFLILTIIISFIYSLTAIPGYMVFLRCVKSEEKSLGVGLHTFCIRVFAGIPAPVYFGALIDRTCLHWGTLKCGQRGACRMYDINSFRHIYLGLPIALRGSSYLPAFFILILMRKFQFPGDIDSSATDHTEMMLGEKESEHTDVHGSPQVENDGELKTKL
Description: as §1, §2

human OATP2B1 = molecular target: T3, human OATP2B1 (Homo sapiens, UniProt O94956); assay: Uptake assay for radiolabeled substrates, human OATP2B1 expressing 293FT cells; format: in vitro ADME; conditions: 10‐min incubation
T3 construct: expressed in transfected cells; host or cells: 293FT cells
T3 sequence (O94956 1-709): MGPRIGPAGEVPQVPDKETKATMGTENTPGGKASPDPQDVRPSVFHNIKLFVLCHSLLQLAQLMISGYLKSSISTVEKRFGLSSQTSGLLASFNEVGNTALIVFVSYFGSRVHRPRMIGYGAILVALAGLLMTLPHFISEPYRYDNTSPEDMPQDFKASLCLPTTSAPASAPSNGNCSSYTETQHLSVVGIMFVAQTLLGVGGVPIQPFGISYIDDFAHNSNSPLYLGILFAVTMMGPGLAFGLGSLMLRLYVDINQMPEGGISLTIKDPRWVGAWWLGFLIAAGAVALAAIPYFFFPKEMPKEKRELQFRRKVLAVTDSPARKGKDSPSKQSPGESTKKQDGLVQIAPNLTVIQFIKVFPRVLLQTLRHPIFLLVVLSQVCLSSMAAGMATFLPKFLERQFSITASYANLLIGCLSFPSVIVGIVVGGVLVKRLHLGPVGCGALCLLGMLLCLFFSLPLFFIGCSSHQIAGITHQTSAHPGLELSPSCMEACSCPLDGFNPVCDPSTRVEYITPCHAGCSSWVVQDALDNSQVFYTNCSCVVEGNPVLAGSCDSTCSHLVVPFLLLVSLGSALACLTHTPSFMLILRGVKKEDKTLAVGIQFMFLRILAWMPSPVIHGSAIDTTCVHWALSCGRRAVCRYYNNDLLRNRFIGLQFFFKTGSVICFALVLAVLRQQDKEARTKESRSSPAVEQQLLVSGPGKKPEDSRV
Description: as §1, §2

Compound | Ratio of uptake amount relative to the uptake into mock cells (rat Oatp1b2; Run_1) | Ratio of uptake amount relative to the uptake into mock cells (rat Oatp1b2; Run_2) | Ratio of uptake amount relative to the uptake into mock cells (rat Oatp1a1; Run_1) | Ratio of uptake amount relative to the uptake into mock cells (rat Oatp1a1; Run_2) | Ratio of uptake amount relative to the uptake into mock cells (human OATP2B1; Run_1) | Ratio of uptake amount relative to the uptake into mock cells (human OATP2B1; Run_2) | Uptake, times higher than in mock cells (rat Oatp1a1)
C[C@]12CC[C@@H]3c4ccc(OS(=O)(=O)O)cc4CC[C@H]3[C@@H]1CCC2=O [E3S, Estrone 3‐sulfate] | 10.0 | 4.7 | 28.6 | 13.6 | 16.2 | 1.9 | 
C[C@]12CC[C@@H]3c4ccc(O)cc4CC[C@H]3[C@@H]1CC[C@@H]2O[C@@H]1O[C@H](C(=O)O)[C@@H](O)[C@H](O)[C@H]1O [E217βG, Estradiol 17β‐D‐glucuronide] | 27.4 | 43.2 | 59.1 | 65.4 | 1.9 | 0.6 | > 50 times
Cn1c(C(F)(F)F)cc(=O)n(-c2cc(Oc3cccnc3OCC(=O)O)c(Cl)cc2F)c1=O [S‐3100‐CA] | 6.6 | 8.4 | 11.7 | 8.7 | 2.6 | 1.9 | 
